From US9464071B2 (priority 2010, dated 2016) come the findings set out here.

Several values for one entry are separate records, joined by “and”; a condition that tells them apart may be missing. Equal values may be shown once. Where a name gives a salt, the structure may show the parent alone. Some results are limits rather than exact numbers.

As usually defined, the melting point is the temperature of the solid-liquid transition. On to `COc1cc(OC)cc(N(CC2CC2)c2ccc3ncc(-c4cnn(CC(=O)N5CCC(O)C5)c4)nc3c2)c1` (stereo not shown), for which the melting point was 203.4 °C and 203.41 °C.
The value for `COc1cc(OC)cc(N(c2ccc3ncc(-c4cnn(C)c4)nc3c2)S(=O)(=O)N(C)C)c1` was 80 °C.
Under `COc1cc(OC)cc(N(CC2CC2)c2ccc3ncc(-c4cnn(C(C)(C)C(=O)NCCO)c4)nc3c2)c1` stands 149.27 °C.
As for `COc1cc(OC)cc(N(CCCNCC(N)=O)c2ccc3ncc(-c4cnn(C)c4)nc3c2)c1` [Compound 641], the melting point was found to be 155 °C.
The value for `COc1cc(OC)cc(N(Cc2csc(C)n2)c2ccc3ncc(-c4cnn(C)c4)nc3c2)c1` [Compound 263] was 168.45 °C.
In turn, `COc1cc(OC)cc(N(Cc2ccc(Cl)s2)c2ccc3ncc(-c4cnn(Cc5ccc(Cl)s5)c4)nc3c2)c1` displayed a melting point of 131.39 °C.
The value for `CONCCN(c1cc(OC)cc(OC)c1)c1ccc2ncc(-c3cnn(C)c3)nc2c1` was 177 °C; that for `COc1cc(OC)cc(N(Cc2nc(C)c[nH]2)c2ccc3ncc(-c4cnn(C)c4)nc3c2)c1` (as salt: HCl) was 188 °C; that for `CCS(=O)(=O)NCCN(c1cc(OC)cc(OC)c1)c1ccc2ncc(-c3cnn(C)c3)nc2c1` [Compound 335] was 122.79 °C.
The value for `COc1cc(OC)cc(N(CC#Cc2ncccc2OC)c2ccc3ncc(-c4cnn(C)c4)nc3c2)c1` [Compound 652, N-(3,5-Dimethoxyphenyl)-N-[3-(3-methoxypyridin-2-yl)prop-2-yn-1-yl]-3-(1-methyl-1H-pyrazol-4-yl)quinoxalin-6-amine] was 144 °C and 142 °C; that for `COc1cc(OC)cc(N(CCC#Cc2ccccc2)c2ccc3ncc(-c4cnn(C)c4)nc3c2)c1` [Compound 919] was 130 °C; that for `COc1cc(OC)cc(N(Cc2ncccn2)c2ccc3ncc(-c4cnn(C)c4)nc3c2)c1` [Compound 812] was 170 °C.
Under `COc1cc(OC)cc(N(CCCNCC(F)(F)F)c2ccc3ncc(-c4cnn(CCCN)c4)nc3c2)c1` stands 175 °C; under `COc1cc(OC)cc(N(CC(O)CN2CCOCC2)c2ccc3ncc(-c4cnn(C)c4)nc3c2)c1` (stereo not shown) [Compound 540], 130.63 °C; under `COc1cc(OC)cc(N(CCN2CCC(N(C)C)C2)c2ccc3ncc(-c4cnn(C)c4)nc3c2)c1` (stereo not shown) [Compound 456], 143.58 °C.
`COc1cc(OC)cc(N(CC2CC2)c2ccc3ncc(-c4cnn(C5CCNCC5)c4)nc3c2)c1` registered a melting point of 90 °C.
The value for `COc1cc(OC)cc(N(CC2CC2)c2ccc3ncc(-c4cnn(CC(=O)NCCN5CCCC5)c4)nc3c2)c1` was 162.91 °C.
Under `COc1cc(OC)cc(N(CC2OCCN(C(C)C)C2=O)c2ccc3ncc(-c4cnn(C)c4)nc3c2)c1` (stereo not shown) stands 187 °C; under `COc1cc(OC)cc(N(CC2CNCCN2)c2ccc3ncc(-c4cnn(C)c4)nc3c2)c1` (stereo not shown), 167 °C.
Under `COc1cc(OC)cc(N(CC(=O)NCCO)c2ccc3ncc(-c4cnn(C)c4)nc3c2)c1` stands 201.43 °C; under `COc1cc(OC)cc(N(CCn2cccc2)c2ccc3ncc(-c4cnn(C)c4)nc3c2)c1` (as salt: HCl), 130 °C; under `COc1cc(OC)cc(N(Cc2ccc(Cl)cc2)c2ccc3ncc(-c4cnn(C)c4)nc3c2)c1`, 114.12 °C.
For `COc1cc(OC)cc(N(CC#Cc2cc(OC)nc(OC)n2)c2ccc3ncc(-c4cnn(C)c4)nc3c2)c1` [Compound 913], the melting point stood at 170 °C.
The value for `CNCC(O)CN(c1cc(OC)cc(OC)c1)c1ccc2ncc(-c3cnn(C)c3)nc2c1` (stereo not shown) (as salt: HCl) was 224 °C; that for `COCCNC(=O)C(C)(C)n1cc(-c2cnc3ccc(N(CC4CC4)c4cc(OC)cc(OC)c4)cc3n2)cn1` was 104.64 °C.
The value for `COc1cc(OC)cc(N(CC2COCC(C)(C)N2)c2ccc3ncc(-c4cnn(C)c4)nc3c2)c1` (stereo not shown) was 157 °C; that for `COc1cc(OC)cc(N(CCN(Cc2ccc(N)cc2)C(C)C)c2ccc3ncc(-c4cnn(C)c4)nc3c2)c1` [Compound 658] was 152 °C; that for `COc1cc(OC)cc(N(Cc2cc(C)on2)c2ccc3ncc(-c4cnn(C)c4)nc3c2)c1` was 171 °C.
Regarding `COc1cc(OC)cc(N(CC#Cc2ccc(C)cn2)c2ccc3ncc(-c4cnn(C)c4)nc3c2)c1`, the melting point is 155 °C.
Under `COc1ccc(OC)c(N(CCN)c2ccc3ncc(-c4cn[nH]c4)nc3c2)c1` [Compound 438] stands 140.67 °C; under `COc1cc(OC)cc(N(CC2CC2)c2ccc3ncc(-c4cnn(CC(O)CO)c4)nc3c2)c1` (stereo not shown) [Compound 37], 154.05 °C and 154 °C.
On to `COc1cc(OC)cc(N(CCO)c2ccc3ncc(-c4cn[nH]c4)nc3c2)c1` [Compound 2], for which the melting point is 169.26 °C and 169 °C.
The value for `COc1cc(OC)cc(N(CCCNCC(F)(F)F)c2ccc3ncc(-c4cnn(C)c4)nc3c2)c1` was 123.12 °C and 126 °C; that for `COc1cc(OC)cc(N(Cc2cc[nH]n2)c2ccc3ncc(-c4cnn(C)c4)nc3c2)c1` (as salt: HCl) was 203 °C; that for `COc1cc(C#N)cc(N(CC2CC2)c2ccc3ncc(-c4cnn(C)c4)nc3c2)c1` was 143 °C.
The value for `CNCCN(c1cc(OC)cc(OC)c1)c1ccc2ncc(-c3cnn(C)c3)nc2c1` was 180 to 182 °C and 181 °C; that for `COc1cc(OC)cc(N(CCC#N)c2ccc3ncc(-c4cnn(C)c4)nc3c2)c1` [Compound 122] was 202.94 °C; that for `COc1cc(OC)cc(N(CC(F)CN)c2ccc3ncc(-c4cnn(C)c4)nc3c2)c1` (stereo not shown) was 168 °C.
The value for `COc1cc(OC)cc(N(CC#Cc2ccnc(N)n2)c2ccc3ncc(-c4cnn(C)c4)nc3c2)c1` was 148 °C; that for `COc1cc(OC)cc(N(CCCN2CCC(F)C2)c2ccc3ncc(-c4cnn(C)c4)nc3c2)c1` (stereo not shown) was 125 °C; that for `COC(=O)c1cccnc1C#CCN(c1cc(OC)cc(OC)c1)c1ccc2ncc(-c3cnn(C)c3)nc2c1` was 156 °C.
`CNCCN(c1cc(OC)cc(OCCO)c1)c1ccc2ncc(-c3cnn(C)c3)nc2c1`: the melting point was determined as 142 °C.
In the case of `CNCCn1cc(-c2cnc3ccc(N(CC4CC4)c4cc(OC)cc(OC)c4)cc3n2)cn1`, the melting point is 103 °C and 103.14 °C.
As for `COc1cc(OC)cc(N(CC(N)=O)c2ccc3ncc(-c4cnn(C)c4)nc3c2)c1`, the melting point is 264 °C and 260.14 °C.
The value for `COc1cccnc1C#CCN(c1ccc2ncc(-c3cnn(C)c3)nc2c1)c1c(Cl)c(OC)cc(OC)c1Cl` [Compound 785] was 190 °C.
Compound `COc1cc(OC)cc(N(CCNC(C)C)c2ccc3ncc(-c4c(C)nn(C)c4C)nc3c2)c1` (as salt: HCl) [Compound 623] showed a melting point of 133 °C.
Under `COc1cc(OC)cc(N(C/C(C)=N/O)c2ccc3ncc(-c4cnn(C)c4)nc3c2)c1` [Compound 80] stands 144 °C; under `COc1cc(OC)cc(N(CCCN2CCC[C@H]2CC#N)c2ccc3ncc(-c4cnn(C)c4)nc3c2)c1` (as salt: HCl), 135 °C; under `COc1cc(OC)cc(N(CCc2nnn[nH]2)c2ccc3ncc(-c4cnn(C)c4)nc3c2)c1`, 196 °C and 195.95 °C.
The value for `COc1cc(OC)cc(N(CCNCC(O)C(F)(F)F)c2ccc3ncc(-c4cnn(C)c4)nc3c2)c1` (stereo not shown) was 123 °C.
Under `COc1cc(OCCO)cc(N(CC2CC2)c2ccc3ncc(-c4cn[nH]c4)nc3c2)c1` stands 80 °C.
The compound `CCOP(=O)(CCN(c1cc(OC)cc(OC)c1)c1ccc2ncc(-c3cnn(C)c3)nc2c1)OCC` registered a melting point of 122 °C.
The value for `COc1cc(OC)cc(N(CC(O)C(F)(F)F)c2ccc3ncc(-c4cnn(C)c4)nc3c2)c1` (single isomer, unassigned) [Compound 148, (2R*)-3-{(3,5-Dimethoxyphenyl)[3-(1-methyl-1H-pyrazol-4-yl)quinoxalin-6-yl]amino}-1,1,1-trifluoropropan-2-ol] was 149.13 °C; that for `COc1cc(OC)cc(N(CCN2C[C@@H]3C[C@H]2CN3)c2ccc3ncc(-c4cnn(C)c4)nc3c2)c1` (as salt: HCl) [Compound 621] was over 260 °C; that for `CNCCN(c1cc(OC)cc(OC)c1)c1ccc2ncc(-c3cn[nH]c3)nc2c1` was 193.59 °C.
Regarding `COc1cc(OC)cc(N(CC2CN(C(C)C)CCO2)c2ccc3ncc(-c4cnn(C)c4)nc3c2)c1` (stereo not shown), the melting point was 88 °C.
The value for `COc1cc(OC)cc(N(CCC(C)(C)O)c2ccc3ncc(-c4cnn(C)c4)nc3c2)c1` [Compound 141, 4-{(3,5-Dimethoxyphenyl)[3-(1-methyl-1H-pyrazol-4-yl)quinoxalin-6-yl]amino}-2-methylbutan-2-ol] was 150 °C.
`COc1cc(OC)cc(N(CCNC(C)C)c2ccc3ncc(-c4cnn(CC5CCOCC5)c4)nc3c2)c1` (as salt: HCl): the melting point was determined as 166 °C.
Turning to `COc1cc(OC)cc(N(CCNC(C)C)c2ccc3ncc(-c4cnn(C5CCOC5)c4)nc3c2)c1` (stereo not shown) (as salt: HCl), the melting point came out at 160 °C.
With `[2H]C([2H])([2H])Oc1cc(OC([2H])([2H])[2H])cc(N(CCCNCC(F)(F)F)c2ccc3ncc(-c4cnn(C)c4)nc3c2)c1`, the melting point amounted to 127 °C.
The value for `COc1cc(O)cc(N(CCN)c2ccc3ncc(-c4cnn(C)c4)nc3c2)c1` was 186 °C.
Consider `COc1cc(OC)cc(N(Cc2cnccn2)c2ccc3ncc(-c4cnn(C)c4)nc3c2)c1` [Compound 146, N-(3,5-Dimethoxyphenyl)-3-(1-methyl-1H-pyrazol-4-yl)-N-(pyrazin-2-ylmethyl)quinoxalin-6-amine], for which the melting point worked out at 163 °C.
The value for `COc1cc(OC)cc(N(CCNS(C)(=O)=O)c2ccc3ncc(-c4cnn(C)c4)nc3c2)c1` [Compound 262] was 130.64 °C; that for `COc1cc(OC)cc(N(CC(C)(C)O)c2ccc3ncc(-c4cnn(C)c4)nc3c2)c1` [Compound 78] was 162 °C and 162.1 °C.
